Source: patent publication US6951871B2, “Indole derivatives useful as histamine H3 antagonists” (Schering Corporation, priority 2002, dated 2005)

Molecular target: T1, H3 receptors (Cavia porcellus, UniProt Q9JI35)
T1 construct: The source of the H3 receptors in this experiment was guinea pig brain; from tissue; host or cells: guinea pig brain membranes
Experiment: H3-Receptor Binding Assay
Settings: guinea pig brain membranes; 3 nM [3H]R-α-methyl histamine or 3 nM [3H]Nα-methyl histamine; 30° C., 30 min
Protocol: Using the appropriate indolene starting materials in a similar procedure, the following compounds were prepared: [drawing 145] General Procedure for H3-Receptor Binding Assay
The source of the H3 receptors in this experiment was guinea pig brain. The animals weighed 400-600 g. The brain tissue was homogenized with a solution of 50 mM Tris, pH 7.5. The final concentration of tissue in the homogenization buffer was 10% w/v. The homogenates were centrifuged at 1,000×g for 10 min. in order to remove clumps of tissue and debris. The resulting supernatants were then centrifuged at 50,000×g for 20 min. in order to sediment the membranes, which were next washed three times in homogenization buffer (50,000×g for 20 min. each). The membranes were frozen and stored at −70° C. until needed.
All compounds to be tested were dissolved in DMSO and then diluted into the binding buffer (50 mM Tris, pH 7.5) such that the final concentration was 2 μg/ml with 0.1% DMSO. Membranes were then added (400 μg of protein) to the reaction tubes. The reaction was started by the addition of 3 nM [^3H]R-α-methyl histamine (8.8 Ci/mmol) or 3 nM [^3H]N^α-methyl histamine (80 Ci/mmol) and continued under incubation at 30° C. for 30 min. Bound ligand was separated from unbound ligand by filtration, and the amount of radioactive ligand bound to the membranes was quantitated by liquid scintillation spectrometry. […]

T1 sequence (Q9JI35 whole entry): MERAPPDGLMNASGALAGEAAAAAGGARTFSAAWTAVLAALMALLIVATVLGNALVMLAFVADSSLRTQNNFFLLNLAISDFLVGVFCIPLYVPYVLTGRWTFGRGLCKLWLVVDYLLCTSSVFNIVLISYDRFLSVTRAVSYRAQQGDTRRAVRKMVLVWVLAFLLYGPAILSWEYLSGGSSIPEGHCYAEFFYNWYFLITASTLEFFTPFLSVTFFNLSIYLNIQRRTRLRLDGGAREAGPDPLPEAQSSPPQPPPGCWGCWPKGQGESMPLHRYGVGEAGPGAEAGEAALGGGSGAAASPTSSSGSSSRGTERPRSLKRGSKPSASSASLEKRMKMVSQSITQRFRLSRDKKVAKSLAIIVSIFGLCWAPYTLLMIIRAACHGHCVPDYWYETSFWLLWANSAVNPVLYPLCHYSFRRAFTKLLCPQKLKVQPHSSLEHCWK

Nc1cc(CN2CCC(C(=O)N3CCC(c4c(-c5ccccn5)n(Cc5ccccn5)c5ccccc45)CC3)CC2)ccn1 [Example 5]
Ki: 1.5 nM
